Like-named read-outs stand apart in the source and are kept apart here.
Tests used:
[1] = stability (air, light, water, chloride, storage); settings: 37: bromide salt; 20a, 20b: bromide salts
Escherichia coli [2] = format: cell-based; settings: 0.5% solution, 20 μL on 6 mm filter paper disc, over night
Protocol: (§1) In this test, a filter paper disc of 6 mm diameter was soaked with 20 μL of a silver compound of known concentration, and placed over a lawn of an organism in the agar plate. The diameter of the area in which growth of the organism is inhibited by the test solution was measured after an over night incubation as a measure of the relative antimicrobial activity of the silver compounds. The test organisms were Escherichia coli, Staphylococcus aureus, and Pseudomonas aeruginosa.

Pseudomonas aeruginosa [3] = format: cell-based; settings: 0.5% solution, 20 μL on 6 mm filter paper disc, over night
Protocol: as §1

Staphylococcus aureus [4] = format: cell-based; settings: 0.5% solution, 20 μL on 6 mm filter paper disc, over night
Protocol: as §1

E. coli (ATCC 8739) = experiment: MIC test in LB broth comparing AgNO3 and complex 106; format: cell-based; design: key: +=growth; −=no growth
[5] = system: P. aeruginosa (ATCC 9027); experiment: as above; format: cell-based; design: key: +=growth; −=no growth
S. aureus (ATCC 6538) = experiment: as above; format: cell-based; design: key: +=growth; −=no growth
Escherichia coli [6] = system: Escherichia coli
Pseudomonas aeruginosa [7] = system: Pseudomonas aeruginosa
Staphylococcus aureus [8] = settings: Day 1
[9] = system: Escherichia coli, Staphylococcus aureus, and Pseudomonas aeruginosa; experiment: agar plates overlay method, summary of Table 2; format: cell-based
Protocol: as §1, with “The usefulness of the compounds represented by Formulas 103 and 55 as antimicrobial agents was evaluated. In” for “In”

Pseudomonas aeruginosa [10] = experiment: Efficacy data MIC and MBC (Table 7); format: cell-based
Alcaligenes xylosoxidans = experiment: Efficacy data MIC and MBC (Table 7); format: cell-based
[11] = system: Stenotrophomonas maltophilia; experiment: Efficacy data MIC and MBC (Table 7); format: cell-based; settings: isolate SM AH08
[12] = system: Methicillin resistant Staphylococcus aureus (MRSA); experiment: Efficacy data MIC and MBC (Table 7); format: cell-based
Yersinia pestis = experiment: microbe, parasite or virus in culture; format: cell-based
Escherichia coli [13] = experiment: Efficacy data MIC and MBC (Table 7); format: cell-based
solubility = settings: 37: bromide salt; 20a, 20b: bromide salts
[14] = Day 1, 1DF: AgNO3 1731.18, 106 1675.74 μg/mL
[15] = Day 1, 2DF: AgNO3 865.59, 106 837.87 μg/mL
[16] = Day 1, 3DF: AgNO3 432.79, 106 418.94 μg/mL
[17] = Day 1, 4DF: AgNO3 216.40, 106 209.47 μg/mL
[18] = Day 1, undiluted: AgNO3 0.50 wt/V % (3462.35 μg/mL), 106 1.38 wt/V % (3341.48 μg/mL)
[19] = Day 2, 1DF: AgNO3 1731.18, 106 1675.74 μg/mL
[20] = Day 2, 2DF: AgNO3 865.59, 106 837.87 μg/mL
[21] = Day 2, 3DF: AgNO3 432.79, 106 418.94 μg/mL
[22] = Day 2, 4DF: AgNO3 216.40, 106 209.47 μg/mL
[23] = Day 2, undiluted: AgNO3 0.50 wt/V % (3462.35 μg/mL), 106 1.38 wt/V % (3341.48 μg/mL)
[24] = Day 1, supernatant undiluted (Ag: 103 1186, 105 1125, AgN03 3176)
[25] = Day 2, supernatant undiluted (Ag: 103 1186, 105 1125, AgN03 3176)

CN1c2c(n(C)c(=O)n(C)c2=O)N(C)[CH]1[Ag][CH]1N(C)c2c(n(C)c(=O)n(C)c2=O)N1C (stereo not drawn) [Formula 97a]
stable in water for five days: stability in water [1]

silver nitrate [AgNO3, reference compound]
11 mm: Diameter of Inhibited Area (Pseudomonas aeruginosa [3])
+: growth / no growth (E. coli (ATCC 8739); [22]) | growth / no growth (S. aureus (ATCC 6538); [22]) | growth(+) or no growth(−) (Escherichia coli [6]; Day 1, supernatant x 1DF) | growth(+) or no growth(−) (Escherichia coli [6]; Day 1, supernatant x 2DF) | growth(+) or no growth(−) (Escherichia coli [6]; Day 1, supernatant x 3DF) | growth(+) or no growth(−) (Escherichia coli [6]; Day 1, supernatant x 4DF) | growth(+) or no growth(−) (Escherichia coli [6]; [25]) | growth(+) or no growth(−) (Pseudomonas aeruginosa [7]; Day 1, supernatant x 1DF) | growth(+) or no growth(−) (Pseudomonas aeruginosa [7]; Day 1, supernatant x 2DF) | growth(+) or no growth(−) (Pseudomonas aeruginosa [7]; Day 1, supernatant x 3DF) | growth(+) or no growth(−) (Pseudomonas aeruginosa [7]; Day 1, supernatant x 4DF) | growth(+) or no growth(−) (Pseudomonas aeruginosa [7]; [25]) | growth(+) or no growth(−) (Staphylococcus aureus [8]; supernatant undiluted (Ag: 103 1186, 105 1125, AgN03 3176)) | growth(+) or no growth(−) (Staphylococcus aureus [8]; supernatant x 1DF) | growth(+) or no growth(−) (Staphylococcus aureus [8]; supernatant x 2DF) | growth(+) or no growth(−) (Staphylococcus aureus [8]; supernatant x 3DF) | growth(+) or no growth(−) (Staphylococcus aureus [8]; supernatant x 4DF)
−: growth / no growth (E. coli (ATCC 8739); [14]) | growth / no growth (E. coli (ATCC 8739); [15]) | growth / no growth (E. coli (ATCC 8739); [16]) | growth / no growth (E. coli (ATCC 8739); [17]) | growth / no growth (E. coli (ATCC 8739); [18]) | growth / no growth (E. coli (ATCC 8739); [19]) | growth / no growth (E. coli (ATCC 8739); [20]) | growth / no growth (E. coli (ATCC 8739); [21]) | growth / no growth (E. coli (ATCC 8739); [23]) | growth / no growth [5, 14] | growth / no growth [5, 15] | growth / no growth [5, 16] | growth / no growth [5, 17] | growth / no growth [5, 18] | growth / no growth [5, 19] | growth / no growth [5, 20] | growth / no growth [5, 21] | growth / no growth [5, 22] | growth / no growth [5, 23] | growth / no growth (S. aureus (ATCC 6538); [14]) | growth / no growth (S. aureus (ATCC 6538); [15]) | growth / no growth (S. aureus (ATCC 6538); [16]) | growth / no growth (S. aureus (ATCC 6538); [17]) | growth / no growth (S. aureus (ATCC 6538); [18]) | growth / no growth (S. aureus (ATCC 6538); [19]) | growth / no growth (S. aureus (ATCC 6538); [20]) | growth / no growth (S. aureus (ATCC 6538); [21]) | growth / no growth (S. aureus (ATCC 6538); [23]) | growth(+) or no growth(−) (Escherichia coli [6]; [24]) | growth(+) or no growth(−) (Pseudomonas aeruginosa [7]; [24])
10.88 mm: Diameter of Inhibited Area (Staphylococcus aureus [4])
11.38 mm: Diameter of Inhibited Area (Escherichia coli [2])

OCCCN1C=CN(Cc2cccc(CN3C=CN(CCCO)C3)n2)C1 [Compound 102]
no antimicrobial activity: antimicrobial properties (Table 2 summary) [9]
6 mm: Diameter of Inhibited Area (Escherichia coli [2]) | Diameter of Inhibited Area (Pseudomonas aeruginosa [3]) | Diameter of Inhibited Area (Staphylococcus aureus [4])

NC[C@H]1O[C@H](O[C@H]2[C@H](O)[C@@H](O[C@H]3O[C@H](CO)[C@@H](O)[C@H](N)[C@H]3O)[C@H](N)C[C@@H]2N)[C@H](N)C[C@@H]1O [Tobramycin, reference compound]
0.25 µg/mL: MBC (Yersinia pestis; Yersinia pestis) | MIC (Yersinia pestis; Yersinia pestis)
8 µg/mL: MBC (Pseudomonas aeruginosa [10]; Pseudomonas aeruginosa, isolate PA HP3, read-out: MBC) | MIC ([11]; Stenotrophomonas maltophilia, read-out: MIC)
15 µg/mL: MIC (Pseudomonas aeruginosa [10]; Pseudomonas aeruginosa, isolate PA 01-V, read-out: MIC)
20 µg/mL: MIC (Alcaligenes xylosoxidans; Achromobacter xylosoxidans, isolate AX 22, read-out: MIC) | MBC ([11]; Stenotrophomonas maltophilia, read-out: MBC)
>20 µg/mL: MBC (Alcaligenes xylosoxidans; isolate AX RE05) | MBC ([12]; isolate SA EH06) | MIC ([12]; isolate SA EH06)
0.5 µg/mL: MIC (Pseudomonas aeruginosa [10]; Pseudomonas aeruginosa, isolate PA LF05, read-out: MIC) | MIC (Pseudomonas aeruginosa [10]; Pseudomonas aeruginosa, isolate PA M57-15, read-out: MIC) | MIC (Pseudomonas aeruginosa [10]; Pseudomonas aeruginosa, isolate PA RR05, read-out: MIC)
4 µg/mL: MIC (Pseudomonas aeruginosa [10]; Pseudomonas aeruginosa, isolate PA HP3, read-out: MIC)
1 µg/mL: MBC (Pseudomonas aeruginosa [10]; Pseudomonas aeruginosa, isolate PA LF05, read-out: MBC) | MBC (Pseudomonas aeruginosa [10]; Pseudomonas aeruginosa, isolate PA M57-15, read-out: MBC) | MBC (Pseudomonas aeruginosa [10]; Pseudomonas aeruginosa, isolate PA RR05, read-out: MBC) | MBC (Escherichia coli [13]; Escherichia coli, isolate J53, read-out: MBC) | MIC (Escherichia coli [13]; Escherichia coli, isolate J53, read-out: MIC) | MBC (Escherichia coli [13]; isolate J53 + pMG101) | MIC (Escherichia coli [13]; isolate J53 + pMG101)
> 20 µg/mL: MBC (Pseudomonas aeruginosa [10]; Pseudomonas aeruginosa, isolate PA 01-V, read-out: MBC) | MIC (Alcaligenes xylosoxidans; Achromobacter xylosoxidans, isolate AX RE05, read-out: MIC) | MBC (Alcaligenes xylosoxidans; Achromobacter xylosoxidans, isolate AX 22, read-out: MBC) | MBC ([12]; Staphylococcus aureus, MRSA, isolate SA LL06, read-out: MBC) | MIC ([12]; Staphylococcus aureus, MRSA, isolate SA LL06, read-out: MIC)

OCCN1C=CN(CN2C=CN(CCO)C2)C1 [Formula 13]
water soluble: solubility in water / aqueous media (solubility)

CC(C)Cc1ccc(C(C)C(=O)[O][Ag][c]2n(C)c3c(=O)n(C)c(=O)n(C)c3[n+]2C)cc1 (stereo not drawn) [SCC1-IBU]
0.25 µg/mL: MIC (Pseudomonas aeruginosa [10]; isolate PA HP3) | MIC (Pseudomonas aeruginosa [10]; isolate PA RR05)
2 µg/mL: MIC (Pseudomonas aeruginosa [10]; isolate PA 01-V) | MBC (Pseudomonas aeruginosa [10]; isolate PA HP3) | MBC (Pseudomonas aeruginosa [10]; isolate PA M57-15) | MBC (Pseudomonas aeruginosa [10]; isolate PA RR05) | MBC (Alcaligenes xylosoxidans; isolate AX 22) | MBC (Alcaligenes xylosoxidans; isolate AX RE05) | MBC [11] | MIC ([12]; isolate SA EH06) | MIC ([12]; isolate SA LL06) | MBC (Yersinia pestis; isolate YP1-1CO92-LCR-)
>20 µg/mL: MBC (Escherichia coli [13]; isolate J53 + pMG101) | MIC (Escherichia coli [13]; isolate J53 + pMG101)
6 µg/mL: MBC (Pseudomonas aeruginosa [10]; isolate PA 01-V) | MBC ([12]; isolate SA LL06)
4 µg/mL: MBC ([12]; isolate SA EH06)
1 µg/mL: MBC (Pseudomonas aeruginosa [10]; isolate PA LF05) | MIC (Pseudomonas aeruginosa [10]; isolate PA LF05) | MIC (Pseudomonas aeruginosa [10]; isolate PA M57-15) | MIC (Alcaligenes xylosoxidans; isolate AX RE05) | MIC [11]
0.5 µg/mL: MIC (Alcaligenes xylosoxidans; isolate AX 22) | MIC (Yersinia pestis; isolate YP1-1CO92-LCR-) | MBC (Escherichia coli [13]; isolate J53) | MIC (Escherichia coli [13]; isolate J53)

OCCN1C=CN(Cc2cccc(CN3C=CN(CCO)C3)n2)C1 [Compound 101]
no antimicrobial activity: antimicrobial properties (Table 2 summary) [9]
6 mm: Diameter of Inhibited Area (Escherichia coli [2]) | Diameter of Inhibited Area (Pseudomonas aeruginosa [3]) | Diameter of Inhibited Area (Staphylococcus aureus [4])

CC(=O)[O][Ag][c]1n(C)c2c(=O)n(C)c(=O)n(C)c2[n+]1C [SCC1]
8 µg/mL: MBC (Pseudomonas aeruginosa [10]; isolate PA HP3) | MBC (Alcaligenes xylosoxidans; isolate AX RE05) | MBC [11] | MIC ([12]; isolate SA LL06)
6 µg/mL: MIC ([12]; isolate SA EH06)
>20 µg/mL: MBC (Escherichia coli [13]; isolate J53 + pMG101) | MIC (Escherichia coli [13]; isolate J53 + pMG101)
10 µg/mL: MBC ([12]; isolate SA LL06)
2 µg/mL: MBC (Pseudomonas aeruginosa [10]; isolate PA 01-V) | MIC (Pseudomonas aeruginosa [10]; isolate PA M57-15) | MBC (Alcaligenes xylosoxidans; isolate AX 22)
20 µg/mL: MBC ([12]; isolate SA EH06)
0.5 µg/mL: MIC (Pseudomonas aeruginosa [10]; isolate PA RR05) | MIC (Alcaligenes xylosoxidans; isolate AX 22) | MIC (Yersinia pestis; isolate YP1-1CO92-LCR-)
4 µg/mL: MIC (Pseudomonas aeruginosa [10]; isolate PA HP3) | MBC (Pseudomonas aeruginosa [10]; isolate PA M57-15) | MIC (Alcaligenes xylosoxidans; isolate AX RE05) | MIC [11]
1 µg/mL: MIC (Pseudomonas aeruginosa [10]; isolate PA 01-V) | MBC (Pseudomonas aeruginosa [10]; isolate PA LF05) | MIC (Pseudomonas aeruginosa [10]; isolate PA LF05) | MBC (Pseudomonas aeruginosa [10]; isolate PA RR05) | MBC (Yersinia pestis; isolate YP1-1CO92-LCR-) | MBC (Escherichia coli [13]; isolate J53) | MIC (Escherichia coli [13]; isolate J53)
